Measured values: ChEMBL document CHEMBL3988442, “University of Dundee, Small-Polar-MMV Screening Library” (2021)

Biological target: Tryptophan--tRNA ligase (Mycobacterium tuberculosis (strain ATCC 25618 / H37Rv), UniProt P9WFT3)
Experiment: Biochemical assay for Mt-TrpRS
Type: functional

Sequence of Tryptophan--tRNA ligase (P9WFT3 whole entry): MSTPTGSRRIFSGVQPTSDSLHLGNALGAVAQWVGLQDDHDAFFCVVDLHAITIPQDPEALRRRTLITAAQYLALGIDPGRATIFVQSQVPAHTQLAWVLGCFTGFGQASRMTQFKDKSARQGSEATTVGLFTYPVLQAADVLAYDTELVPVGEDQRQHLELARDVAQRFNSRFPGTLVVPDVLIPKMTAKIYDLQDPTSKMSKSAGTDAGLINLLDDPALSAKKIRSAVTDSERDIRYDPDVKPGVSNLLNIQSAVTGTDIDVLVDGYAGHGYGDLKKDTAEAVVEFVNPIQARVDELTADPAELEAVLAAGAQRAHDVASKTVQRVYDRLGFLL

Row | Compound | IC50 [µM]
1 | CCCn1cc(CN2CCCC2c2nccc(CN(C)C)n2)cn1 (configuration not stated) | > 195
2 | CN(CCc1ccccn1)C(=O)Nc1cc(C(F)(F)F)c[nH]c1=O | > 195
3 | NC(=O)Nc1cc(F)ccc1SCC(F)F | > 195
4 | Cc1cnn(-c2ccc(S(N)(=O)=O)cc2F)c1 | > 195
5 | Cc1ccc2c(c1C)OCC2NCc1ccc(C#N)cc1 (configuration not stated) | > 195
6 | Cc1cccc(NCc2nc(C)ccc2O)c1 | 81.8
7 | CS(=O)(=O)NC1CCN(C(=O)NCC2CCCO2)CC1 (configuration not stated) | > 195
8 | CC(=O)NC1CCCN(C(=O)CCc2cccnc2)C1 (configuration not stated) | > 195
9 | Cc1ccc(S(=O)(=O)NCc2[nH]ncc2Br)cc1F | > 195
10 | CCOc1ccc(N(C)Cc2nnc(C)o2)cc1 | > 195
11 | Cc1ccc(CNC(=O)c2ccc(CNS(C)(=O)=O)o2)cc1F | > 195
12 | CCOCC(O)CNc1cncc(Br)c1 (configuration not stated) | > 195
13 | CS(=O)(=O)NC1CCN(C(=O)CCC2CCCO2)CC1 (configuration not stated) | > 195
14 | COCCN1CC(C(=O)N(C)Cc2ccc(Cl)s2)CC1=O (configuration not stated) | > 195
15 | O=C(NS(=O)(=O)c1cccnc1)C1CC(c2ccccc2)=NO1 (configuration not stated) | > 195
16 | Cc1ccn(-c2ccc(N3CCCN(Cc4ccccc4)CC3)nn2)n1 | > 195
17 | O=C(C1CCOC1)N1C[C@@H]2CCN(C(=O)c3cscn3)[C@@H]2C1 (some centres not stated) | > 195
18 | O=C(NC1CC1)N1C[C@@H]2CCN(C(=O)c3cscn3)[C@@H]2C1 | > 195
19 | CCS(=O)(=O)N1CCc2c(COCc3ccncc3)cncc2C1 | > 195
20 | CC(C)n1c2ccccc2c2c1cc(C(=O)N(C)C)n2S(C)(=O)=O | > 195
21 | O=C(c1ccccc1)N1CCO[C@@H]2CN(Cc3ccc[nH]3)C[C@@H]2C1 | > 195

Row | Compound | IC50 [µM]
22 | CC(=O)N1CCc2nc(-c3ccc(F)cc3)nc(NC(C)C)c2CC1 | > 195
23 | CCCS(=O)(=O)N1C[C@@H](c2ccccc2)[C@@]2(CCNC2=O)C1 | > 195
24 | CCN1CCC2(CC1)CC(CC(=O)N(C)C)c1ccc(F)cc12 (configuration not stated) | > 195
25 | CCOCc1cnc2n1CCN(C(=O)c1ccoc1C)C2C (configuration not stated) | > 195
26 | COCC(=O)N1CCO[C@]2(CCC[C@H]2COC)C1 | > 195
27 | CN1CCN(Cc2cn3c(n2)CN(Cc2ccncc2)CC3)CC1 | > 195
28 | COCCn1c2c(ccc1=O)CC(NCc1cnn(C)c1)CC2 (configuration not stated) | > 195
29 | CCC(=O)N1CCc2onc(CNS(C)(=O)=O)c2C1 | > 195
30 | CCn1c2c(ccc1=O)CC(NCc1cnn(C)c1)CC2 (configuration not stated) | > 195
31 | CCOCc1cnc2n1CCN(C(=O)c1ccccc1)C2C (configuration not stated) | > 195
32 | CCOCC1c2c(ncn2C)CCN1C(=O)c1cscn1 (configuration not stated) | > 195
33 | c1ccc(CO[C@@H]2CN(Cc3ccoc3)[C@@H]3COC[C@@H]32)nc1 | > 195
34 | CCO[C@H]1CC[C@H]2[C@H]1OCCN2C(=O)COc1ccccc1 | > 195
35 | COCCC(=O)N1CCC2(COCc3cnc(-c4cccnc4)nc32)C1 (configuration not stated) | > 195
36 | c1cn(-c2cnc(C3CCCNC3)cn2)cn1 (configuration not stated) | > 195
37 | Fc1ccc(Cc2cnc(C3CCCN3)cn2)cc1 (configuration not stated) | > 195
38 | CC(=O)N1CCN(c2cc(CCN)nc(C3CC3)n2)CC1 | > 195
39 | O=C(NCc1cncc2c1CCN(CC1CCOC1)C2)c1ccco1 (configuration not stated) | > 195
40 | CC(C)N(C)Cc1cncc2c1CCN(Cc1ccoc1)C2 | > 195
41 | CN(C)Cc1cncc2c1CCN(Cc1ccoc1)C2 | > 195
42 | CN(Cc1cccnc1)Cc1cncc2c1CCN(c1ccccn1)C2 | > 195

Row | Compound | IC50 [µM]
43 | CN(C)CCN1C[C@@H]2CN(c3ccccc3)C[C@@H]2C1=O | > 195
44 | CC(C)N1CCO[C@@H]2CN(C(=O)NCc3ccccc3)CC[C@@H]2C1 | > 195
45 | CN1CCO[C@@H]2CN(C(=O)NCc3ccccc3)CC[C@@H]2C1 | > 195
46 | CCn1ncc2c1C(COC)N(C(=O)c1cscn1)CC2 (configuration not stated) | > 195
47 | CN1CCCN(C(=O)c2ccnn2-c2ccc3ccccn23)CC1 | > 195
48 | O=C(c1ccco1)N1CCC2(CCCN(c3ncccn3)C2)C1 (configuration not stated) | > 195
49 | O=C(COC[C@]12COC[C@H]1CN(C1CCC1)C2)N1CCCC1 | > 195
50 | COCCN1CCC12CCN(C(=O)c1ccc(C)nc1)C2 (configuration not stated) | > 195
51 | CS(=O)(=O)CC(=O)N1C[C@H]2CCC[C@@]2(COc2ccccn2)C1 | > 195
52 | CCOC1COC2(CCN(CC3CC3)CC2)C1 (configuration not stated) | > 195
53 | CCO[C@H]1CN(CC2CCOCC2)[C@@H]2CCCO[C@H]12 | > 195
54 | CS(=O)(=O)N1CCC2(CC1)CC(NCc1ccco1)c1ccccc12 (configuration not stated) | > 195
55 | O=C(c1ccc(F)cc1)N1C[C@@H]2COC[C@]2(COc2cccnc2)C1 | > 195
56 | Cn1cccc1C(=O)N1CC2(CCN(C(=O)c3cccnc3)C2)C1 | > 195
57 | O=C([C@@H]1C[C@@H]2CCN(Cc3ccoc3)C[C@H]2O1)N1CCCC1 | > 195
58 | O=C(NC1CC1)[C@@H]1C[C@@H]2CCN(Cc3ccoc3)C[C@@H]2O1 | > 195
59 | CN(C)CCO[C@H]1CN(CC2CC2)[C@@H]2CCCO[C@H]12 | > 195
60 | CS(=O)(=O)NCc1cn2c(n1)CN(Cc1cccnc1)CC2 | > 195
61 | O[C@@]1(c2ccccn2)CC[C@H]2CN(Cc3ccccn3)C[C@H]21 | > 195
62 | CC(C)OCc1nn(C)c2c1CN(Cc1cccs1)CC2 | > 195
